ChEMBL document CHEMBL1201862, “PubChem BioAssay data set” (2004)
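Five concentrations, 48 hours, 96-well plates. GI50 is the concentration that inhibits growth by half.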 The source made the active and inactive calls. Cut-off read from the data, not from the text of the source: active = GI50 up to about 1.1 µM and inactive = higher.

Tests used:
Assay in all cases: inhibition of tumour cell growth, NCI panel, 48 h
[1] = system: CAKI-1
[2] = system: OVCAR-4
[3] = system: EKVX
[4] = system: HL-60
[5] = system: BT-549
[6] = system: MDA-MB-231
[7] = system: K562
[8] = system: SW-620
[9] = system: UACC-62
[10] = system: UACC-257
[11] = system: SF-295
[12] = system: A549
[13] = system: OVCAR-5
[14] = system: SN12C
[15] = system: MDA-N
[16] = system: M14
[17] = system: Hs-578T
[18] = system: RPMI-8226
[19] = system: U-251
[20] = system: COLO 205
[21] = system: NCI-H522
[22] = system: SR
[23] = system: MOLT-4
[24] = system: MDA-MB-435
[25] = system: SK-MEL-28
[26] = system: DU-145
[27] = system: SK-OV-3
[28] = system: HCT-15
[29] = system: NCI-H460
[30] = system: TK-10
[31] = system: SNB-19
[32] = system: A498
[33] = system: 786-0
[34] = system: KM12
[35] = system: SF-268
[36] = system: MCF7
[37] = system: T47D
[38] = system: HT-29
[39] = system: UO-31
[40] = system: HOP-62
[41] = system: LOX IMVI
[42] = system: SF-539
[43] = system: ACHN
[44] = system: OVCAR-3
[45] = system: OVCAR-8
[46] = system: HOP-92
[47] = system: SK-MEL-5
[48] = system: NCI/ADR-RES
[49] = system: SNB-75
[50] = system: HCC 2998
[51] = system: PC-3
[52] = system: SK-MEL-2
[53] = system: NCI-H226
[54] = system: HCT-116
[55] = system: IGROV-1
[56] = system: CCRF-CEM
[57] = system: Malme-3M
[58] = system: NCI-H23
[59] = system: RXF 393

## C=C([C@@]1(O)C[C@H]2[C@H](CCC2(OC)OC)[C@@H]2c3ccccc3O[C@@H]21)[Si](C)(C)C
[1]
  GI50: > 100 µM (inactive)
[2]
  GI50: > 100 µM (inactive)
[3]
  GI50: > 100 µM (inactive)
[4]
  GI50: 25.5 µM (inactive)
[5]
  GI50: > 100 µM (inactive)
[6]
  GI50: > 100 µM (inactive)
[7]
  GI50: 59.3 µM (inactive)
[8]
  GI50: > 100 µM (inactive)
[9]
  GI50: > 100 µM (inactive)
[10]
  GI50: > 100 µM (inactive)
[11]
  GI50: > 100 µM (inactive)
[12]
  GI50: > 100 µM (inactive)
[13]
  GI50: > 100 µM (inactive)
[14]
  GI50: > 100 µM (inactive)
[15]
  GI50: > 100 µM (inactive)
[16]
  GI50: > 100 µM (inactive)
[17]
  GI50: > 100 µM (inactive)
[18]
  GI50: 44.4 µM (inactive)
[19]
  GI50: > 100 µM (inactive)
[20]
  GI50: > 100 µM (inactive)
[21]
  GI50: 89.7 µM (inactive)
[22]
  GI50: 31.9 µM (inactive)
[23]
  GI50: > 100 µM (inactive)
[24]
  GI50: > 100 µM (inactive)
[25]
  GI50: > 100 µM (inactive)
[26]
  GI50: > 100 µM (inactive)
[27]
  GI50: > 100 µM (inactive)
[28]
  GI50: > 100 µM
[29]
  GI50: > 100 µM (inactive)
[30]
  GI50: > 100 µM (inactive)
[31]
  GI50: > 100 µM (inactive)
[32]
  GI50: > 100 µM (inactive)
[33]
  GI50: > 100 µM (inactive)
[34]
  GI50: > 100 µM (inactive)
[35]
  GI50: > 100 µM (inactive)
[36]
  GI50: 93.1 µM (inactive)
[37]
  GI50: 69.8 µM (inactive)
[38]
  GI50: > 100 µM (inactive)
[39]
  GI50: 76.7 µM (inactive)
[40]
  GI50: > 100 µM (inactive)
[41]
  GI50: > 100 µM (inactive)
[42]
  GI50: > 100 µM (inactive)
[43]
  GI50: > 100 µM (inactive)
[44]
  GI50: > 100 µM (inactive)
[45]
  GI50: > 100 µM (inactive)
[46]
  GI50: 1.78 µM (inactive)
[47]
  GI50: > 100 µM (inactive)
[48]
  GI50: > 100 µM (inactive)
[49]
  GI50: > 100 µM (inactive)
[50]
  GI50: > 100 µM (inactive)
[51]
  GI50: > 100 µM (inactive)
[52]
  GI50: > 100 µM (inactive)
[53]
  GI50: > 100 µM (inactive)
[54]
  GI50: > 100 µM (inactive)
[55]
  GI50: > 100 µM (inactive)

## O=c1c(Br)c(-c2ccccc2)[s+]([O-])c2ccccc12 (stereo unspecified)
[1]
  GI50: 9.12 µM (inactive)
[2]
  GI50: 1.59 µM (inactive)
[3]
  GI50: 16.4 µM (inactive)
[4]
  GI50: 2.11 µM (inactive)
[5]
  GI50: 17.9 µM (inactive)
[6]
  GI50: 14.8 µM (inactive)
[7]
  GI50: 2.74 µM (inactive)
[8]
  GI50: 16.7 µM (inactive)
[9]
  GI50: 13.7 µM (inactive)
[10]
  GI50: 12.9 µM (inactive)
[11]
  GI50: 17.9 µM (inactive)
[12]
  GI50: 24.2 µM (inactive)
[56]
  GI50: 0.861 µM (active)
[57]
  GI50: 10.4 µM (inactive)
[13]
  GI50: 21.5 µM (inactive)
[14]
  GI50: 15.6 µM (inactive)
[15]
  GI50: 6 µM (inactive)
[16]
  GI50: 12.9 µM (inactive)
[17]
  GI50: 25.1 µM (inactive)
[18]
  GI50: 1.61 µM (inactive)
[19]
  GI50: 8.07 µM (inactive)
[20]
  GI50: 1.89 µM (inactive)
[21]
  GI50: 1.68 µM (inactive)
[22]
  GI50: 2.06 µM (inactive)
[23]
  GI50: 1.22 µM (inactive)
[24]
  GI50: 4.5 µM (inactive)
[25]
  GI50: 13 µM (inactive)
[26]
  GI50: 14.2 µM (inactive)
[27]
  GI50: 17.7 µM (inactive)
[28]
  GI50: 3.32 µM
[29]
  GI50: 17.9 µM (inactive)
[30]
  GI50: 18.2 µM (inactive)
[31]
  GI50: 18.2 µM (inactive)
[33]
  GI50: 2.7 µM (inactive)
[34]
  GI50: 15.8 µM (inactive)
[35]
  GI50: 16.4 µM (inactive)
[36]
  GI50: 2.96 µM (inactive)
[37]
  GI50: 2.8 µM (inactive)
[38]
  GI50: 13.2 µM (inactive)
[39]
  GI50: 12 µM (inactive)
[40]
  GI50: 2.43 µM (inactive)
[41]
  GI50: 11.8 µM (inactive)
[58]
  GI50: 16 µM (inactive)
[42]
  GI50: 3.01 µM (inactive)
[43]
  GI50: 2.52 µM (inactive)
[59]
  GI50: 12.2 µM (inactive)
[44]
  GI50: 10.4 µM (inactive)
[45]
  GI50: 4.6 µM (inactive)
[46]
  GI50: 10.5 µM (inactive)
[47]
  GI50: 11.5 µM (inactive)
[48]
  GI50: 16.7 µM (inactive)
[49]
  GI50: 16.2 µM (inactive)
[50]
  GI50: 14.6 µM (inactive)
[51]
  GI50: 7.78 µM (inactive)
[52]
  GI50: 18.4 µM (inactive)
[53]
  GI50: 15.8 µM (inactive)
[54]
  GI50: 5.9 µM (inactive)
[55]
  GI50: 10.1 µM (inactive)

## CCCc1cc(=O)oc2c(C=O)c(O)cc(O)c12
[1]
  GI50: 27 µM (inactive)
[2]
  GI50: 25.8 µM (inactive)
[3]
  GI50: 21.3 µM (inactive)
[4]
  GI50: 18.3 µM (inactive)
[5]
  GI50: 25.1 µM (inactive)
[6]
  GI50: 17.5 µM (inactive)
[7]
  GI50: 57.4 µM (inactive)
[8]
  GI50: 21.8 µM (inactive)
[9]
  GI50: 19.8 µM (inactive)
[10]
  GI50: 24.6 µM (inactive)
[11]
  GI50: 29.9 µM (inactive)
[12]
  GI50: 31.7 µM (inactive)
[56]
  GI50: 22.8 µM (inactive)
[57]
  GI50: 18.5 µM (inactive)
[13]
  GI50: 26.7 µM (inactive)
[14]
  GI50: 24.9 µM (inactive)
[15]
  GI50: 22.3 µM (inactive)
[16]
  GI50: 22.8 µM (inactive)
[17]
  GI50: 22.6 µM (inactive)
[18]
  GI50: 28 µM (inactive)
[19]
  GI50: 22.5 µM (inactive)
[20]
  GI50: 17.7 µM (inactive)
[21]
  GI50: 15.1 µM (inactive)
[22]
  GI50: 27.8 µM (inactive)
[23]
  GI50: 23.3 µM (inactive)
[24]
  GI50: 21.8 µM (inactive)
[25]
  GI50: 23.2 µM (inactive)
[26]
  GI50: 27.5 µM (inactive)
[27]
  GI50: 27.8 µM (inactive)
[28]
  GI50: 26.4 µM
[29]
  GI50: 24.8 µM (inactive)
[30]
  GI50: > 100 µM (inactive)
[31]
  GI50: 25.8 µM (inactive)
[32]
  GI50: 19.5 µM (inactive)
[33]
  GI50: 30.1 µM (inactive)
[34]
  GI50: 22.7 µM (inactive)
[35]
  GI50: 26.6 µM (inactive)
[36]
  GI50: 27 µM (inactive)
[37]
  GI50: 23.1 µM (inactive)
[38]
  GI50: 22.1 µM (inactive)
[39]
  GI50: 22.8 µM (inactive)
[40]
  GI50: 22.3 µM (inactive)
[41]
  GI50: 20 µM (inactive)
[58]
  GI50: 20.3 µM (inactive)
[42]
  GI50: 26.7 µM (inactive)
[43]
  GI50: 26.5 µM (inactive)
[59]
  GI50: 24 µM (inactive)
[44]
  GI50: 18.7 µM (inactive)
[45]
  GI50: 22 µM (inactive)
[46]
  GI50: 18.7 µM (inactive)
[47]
  GI50: 17.4 µM (inactive)
[48]
  GI50: 27.4 µM (inactive)
[49]
  GI50: 11.3 µM (inactive)
[50]
  GI50: 16.7 µM (inactive)
[51]
  GI50: 25.1 µM (inactive)
[52]
  GI50: 18.2 µM (inactive)
[54]
  GI50: 21.8 µM (inactive)
[55]
  GI50: 30.9 µM (inactive)
